Source: PubChem BioAssay AID328 (DTP/NCI, 2004)
“And” between values parts separate entries of the source, which are not always exact repeats. Identical values can stand only once. Inconclusive results and toxic doses are left out.

Tested on: BDF1 mice, P388 leukemia ip, median survival T/C
Test: NCI In Vivo Anticancer Drug Screen. Data for tumor model P388 Leukemia (intraperitoneal) in B6D2F1 (BDF1) mice
Conditions: endpoint: median survival time, higher = longer survival
In short: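 T/C = treated-group survival ÷ vehicle-control survival; tumour transplanted into mice before dosing.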

[1] = dose: 1.56 mg/kg/injection, schedule: Q01DX009 (ip), vehicle: saline
[2] = dose: 3.13 mg/kg/injection, schedule: Q01DX009 (ip), vehicle: saline
[3] = dose: 6.25 mg/kg/injection, schedule: Q01DX009 (ip), vehicle: saline
[4] = dose: 25.0 mg/kg/injection, schedule: Q01DX009 (ip), vehicle: saline with Tween-80
[5] = dose: 50.0 mg/kg/injection, schedule: Q01DX009 (ip), vehicle: saline with Tween-80
[6] = dose: 100.0 mg/kg/injection, schedule: Q01DX009 (ip), vehicle: saline with Tween-80
[7] = dose: 16.5 mg/kg/injection, schedule: Q04DX003 (ip), vehicle: saline with Tween-80
[8] = dose: 25.0 mg/kg/injection, schedule: Q04DX003 (ip), vehicle: saline with Tween-80
[9] = dose: 37.5 mg/kg/injection, schedule: Q04DX003 (ip), vehicle: saline with Tween-80
[10] = dose: 50.0 mg/kg/injection, schedule: Q04DX003 (ip), vehicle: saline with Tween-80
[11] = dose: 100.0 mg/kg/injection, schedule: Q04DX003 (ip), vehicle: saline with Tween-80

In the case of CN(C)c1ccc(-c2nc3ccccn3c2N)cc1, the T/C [1] is reported as 105 % of control, the T/C [2] is reported as 96 % of control and the T/C [3] is reported as 113 % of control.

For COc1cc2c(cc1O)C(=O)CCC(C(=O)O)=C2, the T/C [4] was 106 % of control, the T/C [5] was 111 % of control and the T/C [6] was 101 % of control.

In the case of COC1OC(C)C(O)C(O)[CH]1[Hg][O]C(C)=O (stereo unspecified), the T/C (dose: 0.18 mg/kg/injection, schedule: Q01DX009 (ip), vehicle: saline) is reported as 111 % of control, the T/C (dose: 0.37 mg/kg/injection, schedule: Q01DX009 (ip), vehicle: saline) is reported as 105 % of control and the T/C (dose: 0.75 mg/kg/injection, schedule: Q01DX009 (ip), vehicle: saline) is reported as 94 % of control and 105 % of control. The T/C (dose: 1.5 mg/kg/injection, schedule: Q01DX009 (ip), vehicle: saline) was 86 % of control and 111 % of control.

In the case of COS(=O)(=O)Oc1ccc2ccccc2c1, the T/C (dose: 25.0 mg/kg/injection, schedule: Q01DX009 (ip), vehicle: Klucel (hydroxypropylcellulose) (HPC)) is reported as 98 % of control, the T/C (dose: 50.0 mg/kg/injection, schedule: Q01DX009 (ip), vehicle: Klucel (hydroxypropylcellulose) (HPC)) is reported as 100 % of control and the T/C (dose: 100.0 mg/kg/injection, schedule: Q01DX009 (ip), vehicle: Klucel (hydroxypropylcellulose) (HPC)) is reported as 108 % of control.

For NC1(C(=O)O)CCCc2ccc(N(CCCl)CCCl)cc21 (stereo unspecified), the T/C [7] was 263 % of control and 272 % of control, the T/C [8] was 272 % of control and the T/C [9] was 177 % of control.

With O=C(Nc1ccc(C2=NCCN2)cc1)Nc1cccc(NC(=O)Nc2cccc(C3=NCCN3)c2)c1 the T/C (dose: 12.5 mg/kg/injection, schedule: Q01DX009 (ip), vehicle: saline with Tween-80) was 150 % of control, the T/C [7] was 266 % of control and 170 % of control and the T/C [4] was 105 % of control. The T/C [8] was 250 % of control and 190 % of control and 200 % of control, the T/C [9] was 283 % of control and 185 % of control and the T/C [5] was 90 % of control. The T/C [10] was 177 % of control.

With COc1ccc([I+]c2ccccc2)cc1 the T/C [1] was 87 % of control, the T/C [2] was 104 % of control and the T/C [3] was 112 % of control and 120 % of control. For the same molecule, the T/C (dose: 12.5 mg/kg/injection, schedule: Q04DX003 (ip), vehicle: saline sonified) was 105 % of control and the T/C (dose: 25.0 mg/kg/injection, schedule: Q04DX003 (ip), vehicle: saline sonified) was 110 % of control.

In the case of N#C/C(=C\c1cc(Cl)cc(Cl)c1O)c1nc2ccccc2[nH]1, the T/C [5] is reported as 93 % of control and the T/C [6] is reported as 93 % of control.

In the case of N#CC(C(N)=O)c1ccccc1 (stereo unspecified), the T/C [8] is reported as 102 % of control, the T/C [10] is reported as 108 % of control and the T/C [11] is reported as 97 % of control.

CN(C)c1ccc(Sc2ccc3nc(N)nc(N)c3c2)cc1 was tested, and the T/C [5] was 112 % of control, the T/C [6] was 103 % of control and the T/C (dose: 200.0 mg/kg/injection, schedule: Q01DX009 (ip), vehicle: saline with Tween-80) was 174 % of control.

In the case of CC(C)CC(Br)C(=O)NC(CC(C)C)C(=O)O (stereo unspecified), the T/C [11] is reported as 104 % of control, the T/C (dose: 200.0 mg/kg/injection, schedule: Q04DX003 (ip), vehicle: saline with Tween-80) is reported as 100 % of control and the T/C (dose: 400.0 mg/kg/injection, schedule: Q04DX003 (ip), vehicle: saline with Tween-80) is reported as 109 % of control.

In the case of COB(OC)OC, the T/C (dose: 100.0 mg/kg/injection, schedule: Q04DX003 (ip), vehicle: Klucel (hydroxypropylcellulose) (HPC)) is reported as 91 % of control, the T/C (dose: 200.0 mg/kg/injection, schedule: Q04DX003 (ip), vehicle: Klucel (hydroxypropylcellulose) (HPC)) is reported as 104 % of control and the T/C (dose: 400.0 mg/kg/injection, schedule: Q04DX003 (ip), vehicle: Klucel (hydroxypropylcellulose) (HPC)) is reported as 91 % of control.

With CC1=CC(=C2C=CC(=[N+](C)C)C=C2)C=C(C)S1 the T/C (dose: 3.12 mg/kg/injection, schedule: Q01DX009 (ip), vehicle: distilled water + Tween-80 + alcohol) was 113 % of control, the T/C (dose: 6.25 mg/kg/injection, schedule: Q01DX009 (ip), vehicle: distilled water + Tween-80 + alcohol) was 109 % of control and the T/C (dose: 12.5 mg/kg/injection, schedule: Q01DX009 (ip), vehicle: distilled water + Tween-80 + alcohol) was 114 % of control. For the same molecule, the T/C (dose: 25.0 mg/kg/injection, schedule: Q01DX009 (ip), vehicle: distilled water + Tween-80 + alcohol) was 97 % of control.
